Experimental data published in patent publication US9233954B2, “Organic amine salts of Azilsartan, preparation method and use thereof” (Jiangsu Hansoh Pharmaceutical Co., Ltd., priority 2011, dated 2016).
Where a name gives a salt, the structure may show the parent alone. Read-outs that look alike come from different tables or passages of the source.

What was measured:
[1] = test system: Beagle dog; assay type: in vivo; details: for Clinical observations: Beagle dog, intragastric
From the text: Acute Toxicity Test Research for Beagle Dog
Object: Approximate lethal dose method was introduced in the test to observe the acute toxicity response of the animals by intragastric administration of example 2 or Azilsartan medoxomil potassium salt to Beagle dogs to study the toxicity situation of example 2 after administration and compare the toxicity of example 2 and Azilsartan medoxomil potassium salt, which can provide reference confirmation for the evaluation of toxicity of example 2.
Method (approximate lethal dose method): 6 Beagle dogs were used, 3 for each of example 2 group and Azilsartan medoxomil potassium salt group. The administration dosage was 0.09, 0.13, 0.19, 0.28, 0.42, 0.63, 0.95, 1.42, 2.13, 3.20 g·kg^−1 respectively, wherein 3.20 g·kg^−1 was the maximum administration dosage (corresponding to 1081 times the given dosage for the clinical patient). The blood was collected before administration and on days 2, 7, and 14 after administration to test the corresponding biochemical indicators. Electrocardiogram, body weight, and body temperature were determined before administration and on days 7 and 14 after administration.

[2] = Hygroscopicity test; assay type: physicochemical; details: 25° C.±1° C., RH 80%±2%, 24 h
Method: 1. A dried glass weighing bottle (Outer diameter […]) with a plug was put into an artificial climate box under the temperature of 25° C.±1° C. and relative humidity (RH) of 80%±2% the day before and then weighed precisely (m1).
2. The testing sample was weighed precisely (m2) and lain into the weighing bottle. The thickness of the test sample was about 1 mm.
3. The uncovered weighing bottle and its plug were placed under the above constant temperature and humidity conditions for 24 h.
4. The weighing bottle was covered and weighed precisely (m3).
Calculation formula: Percent of weight increase=(m3−m2)/(m2−m1)*100%
5. Definition of the weight increase of the hygroscopicity
Deliquescence: absorbing enough water to form liquid.
High hygroscopicity: the weight increase of the hygroscopicity is no less than 15%
Having hygroscopicity: the weight increase of the hygroscopicity is between 15% and 2%
Slight hygroscopicity: the weight increase of the hygroscopicity is between 2% and 0.2%
No or almost no hygroscopicity: the weight increase of the hygroscopicity is less than 0.2%

[3] = Solubility test; details: conclusion of the solubility test
Method: Moreover, “1:40” refers to 1 g of sample was dissolved in 40 ml of methanol at room temperature, the same as “1:80”; “1:120” refers to 1 g of sample was dissolved in 40 ml of ethanol at room temperature, the same as “1:200”.

[4] = test system: blood pressure of SHR rats; test: Antihypertensive effect test for spontaneously hypertensive (SHR) rats; assay type: in vivo; details: 10 mg/kg
Method: Antihypertensive Effect Test For Spontaneously Hypertensive (SHR) Rats
38 of 25 week old SHR male rats were randomly divided into 4 groups according to the initial blood pressure, with 6 for the control group (solvent) and 8 for other groups. 10 mg/kg of example 2 compound (Choline Azilsartan), example 4 compound (Azilsartan ethanolamine salts) and control (Azilsartan medoxomil potassium salt) were continuously administered, respectively. The solvent control group was administered solvent. The administration volume was 5 ml/kg and the period was 2 weeks.

In the case of `CCOc1nc2cccc(C(=O)OCc3oc(=O)oc3C)c2n1Cc1ccc(-c2ccccc2-c2noc(=O)[nH]2)cc1` [Azilsartan kamedoxomil, Azilsartan medoxomil potassium salt, reference compound], the Clinical observations ([1]; 1.42 g·kg^−1 dosage group) is reported as “vomit, less moving; moving reduction on day 2 after administration, moving recovered on day 3 and no abnormality observed after day 3”, the Clinical observations ([1]; 2.13 g·kg^−1 dosage group) is reported as “vomit, drooling, moving reduction; moving reduction on day 2 after administration, moving recovered on day 3 and no abnormality observed after day 3” and the Clinical observations ([1]; 3.20 g·kg^−1 dosage group) is reported as “vomit, drooling, less moving; moving reduction on days 2˜8, prostration on days 5˜8, died on day 9”. The Body temperature ([1]; dog, in vivo) was “no abnormality on day 7 after administration”, the Body weight ([1]; dog, in vivo) was “decreased on day 7 after administration compared with pre-administration” and the “Electrocardiogram and haematological indicators” value ([1]; dog, in vivo) was “not abnormal on day 7 after administration”. The PT values ([1]; dog, in vivo) was “reduced significantly after administration compared to pre-administration” and the “Systolic blood pressure and diastolic blood pressure” value ([1]; dog, in vivo) was “reduced more or less on day 2 after administration”.

For `CCOc1nc2cccc(C(=O)O)c2n1Cc1ccc(-c2ccccc2-c2noc(=O)[nH]2)cc1.NCCO` [Example 3], the “Conclusion (hygroscopic or not)” value [2] was “Yes” and the “Hygroscopicity (percent of weight increase)” value [2] was 5.66%.

For `CCOc1nc2cccc(C(=O)[O-])c2n1Cc1ccc(-c2ccccc2-c2noc(=O)[nH]2)cc1.C[N+](C)(C)CCO` [Example 1], the “Conclusion (hygroscopic or not)” value [2] was “Yes”, the “Hygroscopicity (percent of weight increase)” value [2] was 10.51% and the “Solubility, comparison between samples” value [3] was “comparable to the solubility of example 2 compound”.

For `CCOc1nc2cccc(C(=O)O)c2n1Cc1ccc(-c2ccccc2-c2noc(=O)[nH]2)cc1.CCOc1nc2cccc(C(=O)O)c2n1Cc1ccc(-c2ccccc2-c2noc(=O)[nH]2)cc1.NCCO` [Example 4], the “Antihypertensive effect compared with control (Azilsartan medoxomil potassium salt)” value ([4]; SHR rats, 2 weeks) was “superior to the antihypertensive effect of control”, the “Antihypertensive effect, ranking under the same dosage” value ([4]; SHR rats, 2 weeks) was “less effective” and the “Effect on blood pressure of SHR rats compared with solvent control” value ([4]; continuously administered for one or two weeks, FIG. 4) was “reduce the blood pressure of SHR rats significantly”. For the same compound, the “Hygroscopicity (percent of weight increase)” value [2] was 0.08%, the “Conclusion (hygroscopic or not)” value ([2]; listed as Example 4 Compound) was “No” and the “Conclusion (hygroscopic or not)” value ([2]; listed as example 4 compound) was “not hygroscopic”.
